Laboratory results: PubChem BioAssay (NCI)
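Compound exposure: 48 hours, 5 concentrations, 96-well plates. Here, GI50 denotes the concentration required for 50% inhibition of growth. TGI: concentration producing complete growth inhibition.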

What was measured:
Assay in all cases: NCI tumour cell line growth inhibition, 48 h
RXF 393 renal = tested on: RXF 393 renal
SR leukemia = tested on: SR leukemia
HCT-116 colon = tested on: HCT-116 colon
MOLT-4 leukemia = tested on: MOLT-4 leukemia
LOX IMVI melanoma = tested on: LOX IMVI melanoma
SN12C renal = tested on: SN12C renal
SF-539 CNS = tested on: SF-539 CNS
CAKI-1 renal = tested on: CAKI-1 renal
ACHN renal = tested on: ACHN renal
NCI-H226 lung = tested on: NCI-H226 lung

| SMILES | GI50 (RXF 393 renal) [µM] | TGI (RXF 393 renal) [µM] | GI50 (SR leukemia) [µM] | TGI (SR leukemia) [µM] | GI50 (HCT-116 colon) [µM] | TGI (HCT-116 colon) [µM] | GI50 (MOLT-4 leukemia) [µM] | TGI (MOLT-4 leukemia) [µM] | GI50 (LOX IMVI melanoma) [µM] | TGI (LOX IMVI melanoma) [µM] | GI50 (SN12C renal) [µM] | TGI (SN12C renal) [µM] | GI50 (SF-539 CNS) [µM] | TGI (SF-539 CNS) [µM] | GI50 (CAKI-1 renal) [µM] | TGI (CAKI-1 renal) [µM] | GI50 (ACHN renal) [µM] | TGI (ACHN renal) [µM] | GI50 (NCI-H226 lung) [µM] | TGI (NCI-H226 lung) [µM] |
| --- | --- | --- | --- | --- | --- | --- | --- | --- | --- | --- | --- | --- | --- | --- | --- | --- | --- | --- | --- | --- |
| O=c1[nH]c2cc(Cl)c(Cl)cc2n2cc3ccccc3c12 | 17.4 | 31.2 | 17.3 | 39 | 21 | 35.3 | 18.7 | 36.7 | 17.3 | 31 | 15.7 | 29.4 | 19.1 | 39.5 | 20.6 | 34.9 | 15.5 | 28.9 | 18.6 | 35.9 |
| CCOCNc1ccc(N2C(=O)/C(=C/c3ccc(N(CC)CC)cc3)N=C2c2ccccc2)cc1 | 4.23 | 17.4 | 6.5 | > 100 | 2.4 | 53.4 | 4.57 | > 100 | 2.48 | > 100 | 16.6 | > 100 | 4.87 | 26.7 | 12.5 | 56.8 | 17.5 | > 100 | 8.24 | > 100 |
| COc1cc2cc(Oc3ccc(NC(=O)c4cccc5c4OCCO5)cc3)c(C)nc2cc1OC | 8.81 | > 100 | 4.12 | > 100 | 3.42 | > 100 | 4.53 | > 100 | 9.28 | > 100 | 8.4 | > 100 | 9.09 | > 100 | 14.2 | > 100 | 4.01 | 27.3 | 3.21 | 21.2 |
| COc1ccccc1/C=C\C(=O)c1ccccc1 | 13 | 27.4 | 2.77 | 18 | 3.4 | 11.6 | 2.9 | 10.2 | 2.93 | 8.79 | 9.36 | 22.1 | 13.8 | 26.7 | 3.68 | 12.2 | 5.4 | 17.5 | 14.5 | 29.8 |
| COc1cc([C@H]2c3[nH]c4ccccc4c3C[C@H]3COC(=O)N32)cc(OC)c1O |  | 1.51 |  | 0.285 |  | 51.2 |  | 11.2 |  | 20.8 |  | 59.7 |  | 2.86 |  | 46.8 |  | 28.5 |  | 28.5 |
| COC(=O)c1cc2c3c(ccc2[nH]1)N(C(=O)c1cc2c4c(ccc2[nH]1)N(C(=O)c1cc2c5c(ccc2[nH]1)N(C(N)=O)CC5)CC4)CC3 |  | 12.5 |  | > 100 |  | > 100 |  | > 100 |  | > 34 |  | 49.4 |  | > 34.8 |  | 8.95 |  | > 27.8 |  | 5.76 |
| NC(=O)C(=O)n1ncc(Cl)c(Cl)c1=O |  | > 43.1 |  | > 49.7 |  | 55.3 |  | 20.4 |  | 56.6 |  | 40.8 |  | 86.1 |  | 43.5 |  | 55.7 |  | > 100 |
| COc1ccc(/C=C(/C(=O)n2cnnn2)c2cc(OC)c(OC)c(OC)c2)cc1 | 3.91 | > 100 | 0.752 | > 100 | 3.08 | > 100 | 4.31 | > 100 | 3.82 | > 100 | 5.15 | > 100 | 3.2 | 19.9 | 4.15 | > 100 | 6.87 | > 100 | > 100 | > 100 |
| COc1cc2nnn3c4ncccc4c(N=O)c3c2cc1OC | 0.989 |  | 0.0319 |  | 0.118 | > 100 |  | > 100 | 1.16 | > 100 | 2.54 | > 100 | 2.75 | 9.15 | 0.131 | 1.27 | 0.258 | 2.15 | 6.91 | 44.4 |
| CCC(=O)c1cc([N+](=O)[O-])c(Br)s1 | 1.88 | 3.31 | 1.2 | 3.71 | 1.68 | 3.14 | 2.7 | 13.2 | 1.88 | 3.46 | 8.3 | 24.1 | 3.9 | 16.8 | 1.66 | 3.41 | 1.71 | 3.26 | 18.7 | 35.6 |
| CCN(CC)CCCCC1CCN(CC(=O)N2c3ccccc3NC(=O)CC2C)CC1 (configuration not stated) |  | > 100 |  | > 100 |  | > 100 |  | > 100 |  | 47.6 |  | > 100 |  | > 100 |  | > 100 |  | > 100 |  | > 100 |
| O=C(CCN1CCCC1)Nc1ccc2c(Nc3ccccc3)c3ccccc3nc2c1 | 0.981 | 2.65 | 0.0503 | 1.45 | 0.611 | 2.2 | 0.0432 | 1.56 | 0.398 | 1.93 | 0.306 | 1.81 | 1.14 | 2.44 | 0.397 | 2.08 | 0.243 | 1.51 | 1.18 | 3.53 |
